pIC50: −log10 of the molar value.
Biological target: T1, glutathione S-transferase (GST)-linked full-length human Syk protein (Homo sapiens, UniProt P43405)
T1 construct: glutathione S-transferase (GST)-linked full-length human Syk protein; purchased Carna Biosciences; host or cells: Baculovirus expression system
Assay: Syk enzyme assay
Assay type: biochemical
Conditions: 0.83 nM Syk, time-resolved fluorescence; read-out: IC50 of Syk-inhibitory activity
Experimental: A glutathione S-transferase (GST)-linked full-length human Syk protein (Carna Biosciences), which had been generated using a Baculovirus expression system, was used in the Syk enzyme assay.
7.5 μl of a reaction solution (0.83 nM Syk, 20 mM HEPES, 10 mM MgCl2, 50 mM NaCl, 2 mM DTT, 0.05% BSA, pH 7.0) containing a Syk protein and a predetermined concentration of a test compound was shaken for 2 minutes, and it was then left at rest at room temperature for 13 minutes. Thereafter, 0.5 μM substrate peptide (Biotin-[…]-NH2) and 5 μL of a solution containing 67.5 μM ATP were added to the reaction solution, and the obtained mixture was then shaken for 2 minutes. The reaction solution was further left at rest at room temperature for 40 minutes, so as to carry out an enzyme reaction.
Thereafter, 50 μL of a reaction termination solution [60 nM APC-SA, 0.45 μg/mL Eu-PT66, 30 mM HEPES (pH 7.0), 150 mM KF, 30 mM EDTA, 0.15% BSA, 0.075% Tween20] containing Allophycocyanin-Streptavidin (APC-SA; PerkinElmer) and an Eu-W1024-labeled anti-phosphotyrosine PT66 antibody (Eu-PT66; PerkinElmer) was added to the reaction solution to terminate the enzyme reaction. At the same time, the reaction solution was left at rest at room temperature for 1 hour, so as to carry out an antigen-antibody reaction. Thereafter, using EnVision (PerkinElmer), the level of time-resolved fluorescence was measured at 615 nm and 665 nm, so that the phosphorylation of the substrate peptide was measured.
The following are used in Table 5 to denote standards for evaluating IC50 of Syk-inhibitory activity. • A: Up to 10 nM • B: 10 to 50 nM • C: 50 to 100 nM

Row | pIC50 | SMILES
1 | > 8.00 | COCCn1nc(OC(F)F)c2cc(Nc3nc(N[C@H](C4CC4)[C@H](C)N)c(F)cc3C(N)=O)ccc21 [Example 2-176, 6-(((1R,2S)-2-amino-1-cyclopropylpropyl)amino)-2-((3-(difluoromethoxy)-1-(2-methoxyethyl)-1H-indazol-5-yl)amino)-5-fluoronicotinamide]
2 | > 8.00 | COCCn1nc(OC(F)F)c2cc(Nc3nc(N[C@H](CC(C)C)[C@H](C)N)c(F)cc3C(N)=O)ccc21 [Example 2-177, 6-(((2S,3R)-2-amino-5-methylhexan-3-yl)amino)-2-((3-(difluoromethoxy)-1-(2-methoxyethyl)-1H-indazol-5-yl)amino)-5-fluoronicotinamide]
3 | 7.00 to 7.30 | CCOC[C@@H](Nc1nc(Nc2cnc(C)c(-n3nccn3)c2)c(C(N)=O)cc1F)[C@H](C)N [Example 2-183, 6-(((2S,3S)-3-amino-1-ethoxybutan-2-yl)amino)-5-fluoro-2-((6-methyl-5-(2H-1,2,3-triazol-2-yl)pyridin-3-yl)amino)nicotinamide]
4 | > 8.00 | CCCC[C@@H](Nc1nc(Nc2cc(F)c3c(c2)c(N(C)C)nn3C)c(C(N)=O)cc1F)[C@H](C)N [Example 2-189, 6-(((2S,3R)-2-aminoheptan-3-yl)amino)-2-((3-(dimethylamino)-7-fluoro-1-methyl-1H-indazol-5-yl)amino)-5-fluoronicotinamide]
5 | > 8.00 | CC(C)C[C@@H](Nc1nc(Nc2cc(F)c3c(c2)c(N(C)C)nn3C)c(C(N)=O)cc1F)[C@H](C)N [Example 2-190, 6-(((2S,3R)-2-amino-5-methylhexan-3-yl)amino)-2-((3-(dimethylamino)-7-fluoro-1-methyl-1H-indazol-5-yl)amino)-5-fluoronicotinamide]
6 | 7.30 to 8.00 | C[C@H](N)[C@@H](CC1CC1)Nc1nc(Nc2cc(F)c3c(c2)c(N(C)C)nn3C)c(C(N)=O)cc1F [Example 2-191, 6-(((2R,3S)-3-amino-1-cyclopropylbutan-2-yl)amino)-2-((3-(dimethylamino)-7-fluoro-1-methyl-1H-indazol-5-yl)amino)-5-fluoronicotinamide]
7 | 7.30 to 8.00 | CC[C@H](N)[C@@H](CC)Nc1nc(Nc2cc(F)c3c(c2)c(N(C)C)nn3C)c(C(N)=O)cc1F [Example 2-195, 6-(((3R,4S)-4-aminohexan-3-yl)amino)-2-((3-(dimethylamino)-7-fluoro-1-methyl-1H-indazol-5-yl)amino)-5-fluoronicotinamide]
8 | > 8.00 | CCOc1ncc(Nc2nc(N[C@H](CC(C)C)[C@H](C)N)c(F)cc2C(N)=O)cc1-n1ccnn1 [Example 2-199, 6-(((2S,3R)-2-amino-5-methylhexan-3-yl)amino)-2-((6-ethoxy-5-(1H-1,2,3-triazol-1-yl)pyridin-3-yl)amino)-5-fluoronicotinamide]
9 | 7.30 to 8.00 | CCOc1ncc(Nc2nc(N[C@H](CC)[C@H](C)N)c(F)cc2C(N)=O)cc1-n1cccn1 [Example 2-200, 6-(((2S,3R)-2-aminopentan-3-yl)amino)-2-((6-ethoxy-5-(1H-pyrazol-1-yl)pyridin-3-yl)amino)-5-fluoronicotinamide]
10 | 7.30 to 8.00 | CCC[C@@H](Nc1nc(Nc2cnc(OCC)c(-n3cccn3)c2)c(C(N)=O)cc1F)[C@H](C)N [Example 2-201, 6-(((2S,3R)-2-aminohexan-3-yl)amino)-2-((6-ethoxy-5-(1H-pyrazol-1-yl)pyridin-3-yl)amino)-5-fluoronicotinamide]
11 | 7.00 to 7.30 | CC[C@@H](Nc1nc(Nc2cnc(OCCOC)c(-n3nccn3)c2)c(C(N)=O)cc1F)[C@H](C)N [Example 2-202, 6-(((2S,3R)-2-aminopentan-3-yl)amino)-5-fluoro-2-((6-(2-methoxyethoxy)-5-(2H-1,2,3-triazol-2-yl)pyridin-3-yl)amino)nicotinamide]
12 | 7.30 to 8.00 | CCC[C@@H](Nc1nc(Nc2cnc(OCCOC)c(-n3nccn3)c2)c(C(N)=O)cc1F)[C@H](C)N [Example 2-203, 6-(((2S,3R)-2-aminohexan-3-yl)amino)-5-fluoro-2-((6-(2-methoxyethoxy)-5-(2H-1,2,3-triazol-2-yl)pyridin-3-yl)amino)nicotinamide]

Reference: patent US9051310B2, “Nicotinamide derivative or salt thereof” (FUJIFILM Corporation, priority 2011, dated 2015)
